Data set [1] has as its target T1, NTPDase2 (Homo sapiens, UniProt Q9Y5L3).
T1 sequence (Q9Y5L3 1-495): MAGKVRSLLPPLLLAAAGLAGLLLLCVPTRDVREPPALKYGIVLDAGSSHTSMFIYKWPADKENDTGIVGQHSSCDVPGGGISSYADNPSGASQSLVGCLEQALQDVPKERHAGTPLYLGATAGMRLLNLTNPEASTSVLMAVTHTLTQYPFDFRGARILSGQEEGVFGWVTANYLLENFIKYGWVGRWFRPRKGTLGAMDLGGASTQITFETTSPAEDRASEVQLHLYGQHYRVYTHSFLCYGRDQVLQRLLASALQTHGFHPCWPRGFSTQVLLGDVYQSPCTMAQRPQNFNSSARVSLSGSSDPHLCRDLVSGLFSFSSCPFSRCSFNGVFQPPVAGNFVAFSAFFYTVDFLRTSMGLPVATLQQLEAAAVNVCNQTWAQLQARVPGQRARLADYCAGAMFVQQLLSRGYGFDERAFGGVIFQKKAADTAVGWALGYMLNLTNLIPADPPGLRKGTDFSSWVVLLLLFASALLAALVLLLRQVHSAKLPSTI
Put plainly: Stability to hydrolysis by human NTPDase2. Type of data set: in vitro ADME. The conditions noted are these: analogue 100 μM; activity with 100 μM ATP = 100%. Here is the method:
(§1) Uridine 5′-Pα,α-phosphorodithioate analogues, 9-12, were tested for their stability to degradation by NPP1 and NTPDases. These enzymes are involved in the metabolism of extracellular nucleotides. Analogues 9-12 were not hydrolyzed by hNPP1 (Table 2). […] Analogue 10 was hydrolyzed by hNTPDase1, -2 and -3 at 30-39% the rate of ATP and was slightly hydrolyzed by human NTPDase8 at 16% the rate of ATP.
(§2) Analogues 9-12 were incubated in the presence of the indicated ectonucleotidase at a concentration of 100 μM. The activity with 100 μM ATP was set as 100%, which was 329±108, 302±34, 263±51, 195±76 nmol of Pi·min−1·mg of protein−1 for NTPDase1, -2, -3 and -8, respectively, and 34±7 nmol for NPP1. Data presented are the mean±SEM of results from two experiments.

Data set [2] deals with T2, NTPDase3 (Homo sapiens, UniProt O75355).
T2 sequence (O75355 1-529): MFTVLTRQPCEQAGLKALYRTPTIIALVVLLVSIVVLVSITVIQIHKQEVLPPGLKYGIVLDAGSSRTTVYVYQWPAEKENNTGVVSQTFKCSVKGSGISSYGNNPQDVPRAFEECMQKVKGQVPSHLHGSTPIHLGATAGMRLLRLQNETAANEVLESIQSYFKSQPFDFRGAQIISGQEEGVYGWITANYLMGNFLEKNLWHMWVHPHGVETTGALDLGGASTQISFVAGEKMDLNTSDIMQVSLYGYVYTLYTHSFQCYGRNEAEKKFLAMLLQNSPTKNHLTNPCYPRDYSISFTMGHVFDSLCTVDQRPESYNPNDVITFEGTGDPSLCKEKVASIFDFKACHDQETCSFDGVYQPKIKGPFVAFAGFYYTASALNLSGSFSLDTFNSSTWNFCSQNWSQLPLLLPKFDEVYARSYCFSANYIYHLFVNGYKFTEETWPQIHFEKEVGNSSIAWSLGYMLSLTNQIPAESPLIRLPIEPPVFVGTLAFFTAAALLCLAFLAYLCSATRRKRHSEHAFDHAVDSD
Put plainly: Stability to hydrolysis by human NTPDase3. Type of data set: in vitro ADME. To be noted: analogue 100 μM; activity with 100 μM ATP = 100%. Here is the method:
as §1, §2

The target in data set [3] is T3, NTPDase8 (Homo sapiens, UniProt Q5MY95).
T3 sequence (Q5MY95 1-495): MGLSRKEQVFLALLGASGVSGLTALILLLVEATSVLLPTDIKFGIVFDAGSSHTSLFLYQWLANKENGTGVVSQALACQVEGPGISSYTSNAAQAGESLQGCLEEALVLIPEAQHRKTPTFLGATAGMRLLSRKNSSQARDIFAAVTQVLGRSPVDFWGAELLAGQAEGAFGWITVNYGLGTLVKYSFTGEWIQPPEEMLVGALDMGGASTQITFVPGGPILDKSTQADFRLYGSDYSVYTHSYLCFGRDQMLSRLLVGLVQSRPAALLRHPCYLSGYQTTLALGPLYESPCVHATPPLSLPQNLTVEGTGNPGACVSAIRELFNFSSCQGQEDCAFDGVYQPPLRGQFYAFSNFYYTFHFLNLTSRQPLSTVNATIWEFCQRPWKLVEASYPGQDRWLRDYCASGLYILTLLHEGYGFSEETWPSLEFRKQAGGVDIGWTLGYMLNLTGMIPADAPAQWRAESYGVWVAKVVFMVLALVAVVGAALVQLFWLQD
Put plainly: Stability to hydrolysis by human NTPDase8. Type of data set: in vitro ADME. The conditions noted are these: analogue 100 μM; activity with 100 μM ATP = 100%. Here is the method: as §1, §2

Data set [4] concerns the target T4, human P2Y1R (Homo sapiens, UniProt P47900).
T4 construct: expressed in transfected cells; host or cells: 1321N1 astrocytoma cells
Put plainly: Calcium mobilization in 1321N1 astrocytoma cells expressing human P2Y1R. Type of data set: cell-based. Here is the method:
(§3) Given the structural resemblance of 106-109 to the natural ligands of P2Y receptors, adenine and uracil nucleotides as natural substrates, were assessed for agonist potency on the human P2Y1, P2Y2, P2Y4, and P2Y6 receptor. To evaluate NPP1 selectivity of analogs 106-109, they were tested for their ability to activate of the uridine-nucleotide sensitive human recombinant P2Y1,2,4,6-receptors. The agonist potencies of this series of nucleotide analogues on the Gq protein-coupled human P2Y1R, P2Y2R, P2Y4R, and P2Y6R was determined by assessing its ability to induce calcium mobilization in stably transfected 1321N1 astrocytoma cells (Table 8). The nucleotide analogues were found in calcium mobilization assays to activate the P2Y2R with mid-micromolar potency.
Background: A change in cytosolic calcium serves as a functional read-out for many receptors and channels.

Data set [5] deals with T5, human P2Y4R (Homo sapiens, UniProt P51582).
T5 construct: expressed in transfected cells; host or cells: 1321N1 astrocytoma cells
Put plainly: Calcium mobilization in 1321N1 astrocytoma cells expressing human P2Y4R. Type of data set: cell-based. Here is the method: as §3

Data set [6] concerns the target P2Y6R (Homo sapiens, UniProt Q15077). The data set is described as follows: Calcium mobilization in 1321N1 astrocytoma cells expressing human P2Y6R. Also on record: expressed in transfected cells; host or cells: 1321N1 astrocytoma cells (stably transfected). Type of data set: cell-based. Here is the method: as §3

The structures appear in SMILES notation. Where “and” joins values, the source holds several entries; their conditions need not be identical. Identical values can stand only once.

Sequence of P2Y6R (Q15077 whole entry): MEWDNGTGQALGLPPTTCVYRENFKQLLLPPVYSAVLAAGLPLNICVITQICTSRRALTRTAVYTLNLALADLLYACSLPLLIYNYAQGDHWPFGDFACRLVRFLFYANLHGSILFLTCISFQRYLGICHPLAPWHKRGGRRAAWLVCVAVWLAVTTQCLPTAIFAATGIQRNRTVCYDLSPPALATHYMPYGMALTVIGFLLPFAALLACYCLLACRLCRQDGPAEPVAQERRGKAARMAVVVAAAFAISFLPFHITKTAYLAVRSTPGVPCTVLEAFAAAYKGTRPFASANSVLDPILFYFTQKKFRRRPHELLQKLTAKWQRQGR
T4 sequence (P47900 whole entry): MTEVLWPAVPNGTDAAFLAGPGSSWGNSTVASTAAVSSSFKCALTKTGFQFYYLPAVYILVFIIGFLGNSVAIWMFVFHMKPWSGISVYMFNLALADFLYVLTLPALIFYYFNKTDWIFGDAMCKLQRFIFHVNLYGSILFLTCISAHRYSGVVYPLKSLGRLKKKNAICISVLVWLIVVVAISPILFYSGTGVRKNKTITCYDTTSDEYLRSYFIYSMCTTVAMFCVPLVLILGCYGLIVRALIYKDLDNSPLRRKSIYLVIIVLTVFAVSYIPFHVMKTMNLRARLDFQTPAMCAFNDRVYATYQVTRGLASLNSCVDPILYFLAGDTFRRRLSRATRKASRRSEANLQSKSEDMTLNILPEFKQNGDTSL
T5 sequence (P51582 whole entry): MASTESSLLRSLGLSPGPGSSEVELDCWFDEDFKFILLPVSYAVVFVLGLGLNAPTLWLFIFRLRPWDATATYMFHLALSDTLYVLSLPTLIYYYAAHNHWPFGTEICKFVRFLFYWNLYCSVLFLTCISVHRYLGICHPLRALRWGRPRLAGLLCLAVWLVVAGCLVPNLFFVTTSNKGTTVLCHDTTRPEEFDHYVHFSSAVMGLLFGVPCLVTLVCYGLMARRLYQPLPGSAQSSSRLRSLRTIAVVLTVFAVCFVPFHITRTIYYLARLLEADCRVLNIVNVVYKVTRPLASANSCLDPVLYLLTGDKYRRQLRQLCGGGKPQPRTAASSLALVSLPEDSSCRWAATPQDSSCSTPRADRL

For `O=c1ccn([C@@H]2O[C@H](COP(=S)(S)OP(=O)(O)OP(=O)(O)O)[C@@H](O)[C@H]2O)c(=O)[nH]1` (stereo partly drawn) [Analogue 10], in data set [1], the “Relative activity (%) ± SEM of ATP hydrolysis, NTPDase2” value is given as 32.0 ± 3.3%. Moreover, the “Relative activity (%) ± SEM of ATP hydrolysis, NTPDase3” value in data set [2] came out at 39.7 ± 1.9%. Besides, in data set [3], the “Relative activity (%) ± SEM of ATP hydrolysis, NTPDase8” value was 16% and 16.5 ± 2.8%.

With `Nc1ncnc2c1ncn2COCCOP(=S)(S)OP(=O)(O)O` (stereo not drawn) [compound 106], the “% activation at 10 μM, P2Y1” value in data set [4] is on record as 2 ± 2%. The “% activation at 10 μM, P2Y4” value in data set [5] amounted to 0 ± 0%. In addition, the “% activation at 10 μM, P2Y6” value in data set [6] is on record as −2 ± 1%.

Values taken from US20220220135A1 (BAR-ILAN UNIVERSITY, priority 2019, published 2022).
